Source: paper PMC10538245, “Fragment merging approach for design, synthesis, and biological assessment of urea/acetyl hydrazide clubbed thienopyrimidine derivatives as GSK-3β inhibitors” (BMC Chemistry, 2023)
Where two headings read alike, the source gives them in different places.

Tests used:
[1] = molecular target: T1, GSK-3β (Homo sapiens, UniProt P49841); test: GSK-3β kinase inhibition, Z'-LYTE FRET assay (Thermo Fisher SelectScreen); type: biochemical; details: for inhibition at 100 µM: 100 μM single dose
T1 sequence (P49841 whole entry): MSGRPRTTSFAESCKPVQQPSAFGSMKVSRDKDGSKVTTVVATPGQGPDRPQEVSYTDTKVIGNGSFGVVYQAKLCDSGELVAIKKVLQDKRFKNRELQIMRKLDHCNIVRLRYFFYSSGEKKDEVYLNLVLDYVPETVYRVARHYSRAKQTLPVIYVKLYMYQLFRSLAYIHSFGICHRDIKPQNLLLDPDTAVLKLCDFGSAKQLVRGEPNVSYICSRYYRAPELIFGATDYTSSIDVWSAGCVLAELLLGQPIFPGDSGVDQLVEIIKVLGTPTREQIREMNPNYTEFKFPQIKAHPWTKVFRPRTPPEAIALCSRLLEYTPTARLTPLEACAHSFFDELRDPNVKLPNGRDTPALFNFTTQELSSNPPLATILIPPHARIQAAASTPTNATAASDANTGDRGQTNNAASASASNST

[2] = molecular target: T1, GSK-3β; details: cited from earlier work

melting point [°C] | inhibition at 10 µM ([1]; 10 μM) [%] | inhibition at 100 µM [1] [%] | IC50 ([1]; five doses 10 nM–100 µM) [µM] | Compound | IC50 [2] [µM]
300 | 17 | 68 | – | S=C(Nc1ccccc1)Nc1ncnc2sc3c(c12)CCCC3 [9a, Phenyl-3-(5,6,7,8-tetrahydrobenzo [4,5]thieno[2,3-d)pyrimidin-4-yl) thiourea] | –
300 | – | 70 | 28 | Cc1cccc(NC(=O)Nc2ncnc3sc4c(c23)CCCC4)c1 [9b, 1-(5,6,7,8-Tetrahydrobenzo[4,5]thieno[2,3-d]pyrimidin-4-yl)-3-(m-tolyl)urea] | –
300 | – | 68 | – | O=C(Nc1ccc(Cl)c(C(F)(F)F)c1)Nc1ncnc2sc3c(c12)CCCC3 [9c, 1-(4-Chloro-3-(trifluoromethyl)phenyl)-3-(5,6,7,8tetrahydrobenzo[4,5]thieno[2,3-d]pyrimidin-4-yl)urea] | –
– | – | – | – | COc1ccc(-c2cc3c(NC(=O)c4cccc(F)c4)ncnc3o2)cc1 [II] | > 35
